For assay [1], the target named is Type-1 angiotensin II receptor (Homo sapiens, UniProt P30556). Put plainly: AT1 receptor antagonists, dose response, selectivity assay for APJ receptor antagonist project, cell-based, uHTS hits (AID 463214).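 Note: antagonist potency against angiotensin II stimulated AT1 response.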 The format is functional.
Another assay addresses Beta-galactosidase (Escherichia coli, UniProt Q8VNN2). Put plainly: PubChem AID 485352. It counts as functional.
Assay [2] has as its target Nuclear receptor subfamily 0 group B member 1 (Homo sapiens, UniProt P51843). Put plainly: Luminescence-based cell-based high throughput dose response assay for inhibitors of the orphan nuclear receptor subfamily 0, group B, member 1 (DAX1; NR0B1). [Related pubchem assays (depositor defined):AID504766, AID504790]. It counts as functional.
Assay [3] has as its target T1, DNA repair and recombination protein RAD54-like (Homo sapiens, UniProt Q92698).
T1 sequence (Q92698 whole entry): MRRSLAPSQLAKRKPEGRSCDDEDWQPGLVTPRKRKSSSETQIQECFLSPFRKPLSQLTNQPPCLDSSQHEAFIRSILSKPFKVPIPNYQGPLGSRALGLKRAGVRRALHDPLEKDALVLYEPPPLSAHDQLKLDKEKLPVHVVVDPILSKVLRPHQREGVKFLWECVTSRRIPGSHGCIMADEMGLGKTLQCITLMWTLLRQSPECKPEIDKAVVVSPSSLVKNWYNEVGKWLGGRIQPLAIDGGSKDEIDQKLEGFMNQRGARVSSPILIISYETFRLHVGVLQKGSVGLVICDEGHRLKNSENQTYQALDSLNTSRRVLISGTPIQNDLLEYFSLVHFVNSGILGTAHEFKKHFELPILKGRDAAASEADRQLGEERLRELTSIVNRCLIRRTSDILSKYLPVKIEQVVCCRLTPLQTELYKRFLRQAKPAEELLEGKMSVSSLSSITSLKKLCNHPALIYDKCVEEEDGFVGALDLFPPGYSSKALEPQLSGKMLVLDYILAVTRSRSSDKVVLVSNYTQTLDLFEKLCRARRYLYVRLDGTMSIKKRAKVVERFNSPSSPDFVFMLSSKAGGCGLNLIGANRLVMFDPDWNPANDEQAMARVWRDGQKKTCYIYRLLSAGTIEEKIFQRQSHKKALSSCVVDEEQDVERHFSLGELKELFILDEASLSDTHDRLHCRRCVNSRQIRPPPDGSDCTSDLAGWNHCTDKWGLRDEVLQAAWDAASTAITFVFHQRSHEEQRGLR
Put plainly: inhibitors of human RAD54 branch migration, confirmation, biochemical, fluorescence, cherry-picked samples, dose series (AID 651657). The format is functional.

The subject of the next assay is HEK293. Nature of the assay: cells. The format is functional, cell-based. To be noted: Homo sapiens.
The subject of assay [4] is Streptococcus sp. 'group A'. Put plainly: growth inhibition of control SK(-) GAS strain, dose response, counter-screen for streptokinase expression inhibitor project, luminescence, kanamycin, BacTiterGlo, confirmation (AID 1900). The format is functional, organism-based.
The target of a further assay is Phospholipase A2 (Homo sapiens, UniProt P04054). The format is functional.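 Note: confirmatory dose-response counterscreen on phospholipase A2, testing hits that came from an ultra-high-throughput screen for ATG4B inhibitors.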
The test system of another assay is Streptococcus. Put plainly: Group A Streptococcus viability loss, dose response, counter-screen for streptokinase expression inhibitor project, luminescence, BacTiterGlo (AID 1915).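 Note: potency for reduction of bacterial viability or growth.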 It counts as functional, organism-based. (A counterscreen serves to expose hits that act by an unwanted route or on another target.)
The next assay has as its target Cysteine protease ATG4B (Homo sapiens, UniProt Q9Y4P1). It counts as functional.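 Note: Fluorescence-based dose-response confirmation assay measuring inhibition of ATG4B activity.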
The next assay deals with T2, Streptokinase A (Streptococcus pyogenes serotype M1, UniProt P10520).
T2 sequence (P10520 whole entry): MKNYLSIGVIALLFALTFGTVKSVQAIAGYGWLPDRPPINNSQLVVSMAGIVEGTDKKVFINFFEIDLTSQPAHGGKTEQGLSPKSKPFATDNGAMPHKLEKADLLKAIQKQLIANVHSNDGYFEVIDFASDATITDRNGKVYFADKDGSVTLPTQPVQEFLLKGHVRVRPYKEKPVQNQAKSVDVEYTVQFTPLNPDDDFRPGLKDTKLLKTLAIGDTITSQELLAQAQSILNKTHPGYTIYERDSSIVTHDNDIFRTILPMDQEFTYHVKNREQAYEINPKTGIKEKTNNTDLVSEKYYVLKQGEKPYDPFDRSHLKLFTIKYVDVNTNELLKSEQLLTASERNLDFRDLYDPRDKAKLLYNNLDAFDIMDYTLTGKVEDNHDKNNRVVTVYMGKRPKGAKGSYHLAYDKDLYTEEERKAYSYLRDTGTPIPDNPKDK
Put plainly: S. pyogenes streptokinase expression inhibitors, potency, dose response, plasminogen activation absorbance, OD405 (AID 1914).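 Note: secreted streptokinase activity via plasminogen activation per viability signal from cell pellet.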 The format is functional, Streptococcus pyogenes M1 GAS.

Assay [5] concerns Candida albicans. Nature of the assay: growth inhibition of resistant C. albicans, dose response, CaCi-8, fluconazole, Alamar Blue, dry powder (AID 488807). The format is functional, organism-based. Background: The colour change of resazurin is a common sign of viable cells or microbes.
Assay [6] has as its system Candida albicans. Nature of the assay: growth inhibition of resistant C. albicans, dose response, CaCi-8 strain, fluconazole, dry powder, set 4 (AID 488950). The format is functional, organism-based.
The subject of assay [7] is Candida albicans. Nature of the assay: fluconazole resistance reversal in C. albicans, dose response, CaCi-2 strain, Alamar Blue, dry powder, set 4 (AID 488943). The format is functional, organism-based.
The next assay has as its target Hexokinase-1 (Homo sapiens, UniProt P19367). Nature of the assay: SAR analysis of small molecule inhibitors of hexokinase domain containing I (HKDC1) in the hexokinase 1 selectivity assay. [Related pubchem assays (depositor defined):AID493160, AID493190]. The format is functional.
A further assay deals with Hexokinase HKDC1 (Homo sapiens, UniProt Q2TB90). Put plainly: SAR analysis of small molecule inhibitors of hexokinase domain containing I (HKDC1). [Related pubchem assays (depositor defined):AID493160, AID493190]. It counts as functional.
For assay [8], the target named is T3, Short transient receptor potential channel 4 (Mus musculus, UniProt Q9QUQ5).
T3 sequence (Q9QUQ5 whole entry): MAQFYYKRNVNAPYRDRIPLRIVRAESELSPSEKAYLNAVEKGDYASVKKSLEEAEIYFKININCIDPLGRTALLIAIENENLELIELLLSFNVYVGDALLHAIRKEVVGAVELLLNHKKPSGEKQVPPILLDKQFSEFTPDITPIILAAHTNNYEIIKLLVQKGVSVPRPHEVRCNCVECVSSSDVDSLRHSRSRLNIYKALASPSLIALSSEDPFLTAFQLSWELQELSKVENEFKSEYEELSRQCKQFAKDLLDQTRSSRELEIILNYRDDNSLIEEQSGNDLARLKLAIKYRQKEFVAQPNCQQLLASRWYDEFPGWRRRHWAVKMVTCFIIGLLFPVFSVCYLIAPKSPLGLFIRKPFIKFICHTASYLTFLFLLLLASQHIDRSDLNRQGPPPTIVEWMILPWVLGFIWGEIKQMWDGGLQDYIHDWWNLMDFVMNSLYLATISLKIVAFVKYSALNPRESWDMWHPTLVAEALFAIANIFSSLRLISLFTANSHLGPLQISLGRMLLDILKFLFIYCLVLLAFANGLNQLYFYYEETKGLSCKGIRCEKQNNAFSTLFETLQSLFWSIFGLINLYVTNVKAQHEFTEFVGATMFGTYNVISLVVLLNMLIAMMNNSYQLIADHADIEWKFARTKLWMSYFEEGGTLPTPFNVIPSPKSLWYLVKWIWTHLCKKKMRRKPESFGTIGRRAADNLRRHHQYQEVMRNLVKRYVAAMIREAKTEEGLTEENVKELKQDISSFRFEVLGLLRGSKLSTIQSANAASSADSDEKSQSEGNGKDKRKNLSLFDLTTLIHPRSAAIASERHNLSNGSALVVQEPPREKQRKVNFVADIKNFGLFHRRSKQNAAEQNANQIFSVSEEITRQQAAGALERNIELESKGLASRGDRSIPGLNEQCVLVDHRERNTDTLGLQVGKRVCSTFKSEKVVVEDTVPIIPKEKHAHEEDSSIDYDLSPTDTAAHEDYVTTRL
Put plainly: TRPC4 inhibitor concentration-response, dose response, cell-based, HEK293 TRPC4/mu-opioid, DAMGO stimulus, Fluo-4 (AID 492994). It counts as functional.

Active and inactive are the calls of the source.

A word on the IC50: it is the concentration that inhibits the measured activity by half. As a reminder, the EC50 is the midpoint of the concentration-response curve. As a reminder, the AC50 is the midpoint of the concentration-response curve, whichever way the signal moves.

Chain of Nuclear receptor subfamily 0 group B member 1 (P51843 whole entry): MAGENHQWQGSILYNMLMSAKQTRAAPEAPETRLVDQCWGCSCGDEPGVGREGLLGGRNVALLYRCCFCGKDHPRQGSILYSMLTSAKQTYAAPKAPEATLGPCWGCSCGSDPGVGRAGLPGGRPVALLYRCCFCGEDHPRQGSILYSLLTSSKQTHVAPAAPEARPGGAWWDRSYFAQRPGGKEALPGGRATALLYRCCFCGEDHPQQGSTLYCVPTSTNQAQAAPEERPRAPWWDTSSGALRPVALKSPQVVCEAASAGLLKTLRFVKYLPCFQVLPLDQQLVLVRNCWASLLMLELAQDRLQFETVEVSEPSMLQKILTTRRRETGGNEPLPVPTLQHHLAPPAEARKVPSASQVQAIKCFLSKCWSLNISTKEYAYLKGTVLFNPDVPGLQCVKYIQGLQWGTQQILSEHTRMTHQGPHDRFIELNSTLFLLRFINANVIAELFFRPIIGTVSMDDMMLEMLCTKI
Chain of Hexokinase HKDC1 (Q2TB90 whole entry, the tested form may be a part): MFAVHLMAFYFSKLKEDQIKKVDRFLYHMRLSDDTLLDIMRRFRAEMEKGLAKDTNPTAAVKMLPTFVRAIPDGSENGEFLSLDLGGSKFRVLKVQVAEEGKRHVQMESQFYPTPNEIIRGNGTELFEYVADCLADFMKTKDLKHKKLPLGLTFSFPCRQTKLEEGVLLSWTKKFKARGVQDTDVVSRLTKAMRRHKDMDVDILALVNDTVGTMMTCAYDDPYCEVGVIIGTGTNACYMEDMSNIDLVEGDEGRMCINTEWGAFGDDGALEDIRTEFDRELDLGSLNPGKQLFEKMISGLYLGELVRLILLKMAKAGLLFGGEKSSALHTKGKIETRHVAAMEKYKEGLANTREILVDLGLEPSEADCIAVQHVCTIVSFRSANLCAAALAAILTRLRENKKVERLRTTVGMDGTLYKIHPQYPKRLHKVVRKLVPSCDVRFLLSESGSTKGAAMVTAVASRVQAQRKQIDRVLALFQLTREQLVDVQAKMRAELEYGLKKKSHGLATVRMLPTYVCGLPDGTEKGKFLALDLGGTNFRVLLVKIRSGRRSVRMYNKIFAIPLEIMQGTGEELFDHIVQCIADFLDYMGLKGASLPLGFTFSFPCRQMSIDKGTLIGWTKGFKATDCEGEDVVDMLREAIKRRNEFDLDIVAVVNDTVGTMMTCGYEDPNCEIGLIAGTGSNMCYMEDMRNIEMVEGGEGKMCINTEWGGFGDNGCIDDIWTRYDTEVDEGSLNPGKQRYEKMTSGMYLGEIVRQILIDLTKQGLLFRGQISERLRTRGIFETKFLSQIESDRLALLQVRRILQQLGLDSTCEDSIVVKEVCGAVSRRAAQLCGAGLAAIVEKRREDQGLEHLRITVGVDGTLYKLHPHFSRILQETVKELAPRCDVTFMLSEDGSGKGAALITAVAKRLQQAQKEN
Chain of Type-1 angiotensin II receptor (P30556 whole entry): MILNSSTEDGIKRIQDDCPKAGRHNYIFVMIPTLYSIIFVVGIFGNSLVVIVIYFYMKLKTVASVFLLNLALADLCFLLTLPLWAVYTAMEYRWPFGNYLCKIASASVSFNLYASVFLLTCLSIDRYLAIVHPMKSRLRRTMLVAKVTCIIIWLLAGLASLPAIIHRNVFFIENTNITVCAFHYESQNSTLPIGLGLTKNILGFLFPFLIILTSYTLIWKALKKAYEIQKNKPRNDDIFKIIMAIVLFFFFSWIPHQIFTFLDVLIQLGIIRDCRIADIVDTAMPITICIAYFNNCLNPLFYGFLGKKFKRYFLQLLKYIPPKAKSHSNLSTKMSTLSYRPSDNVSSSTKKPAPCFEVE
Chain of Phospholipase A2 (P04054 whole entry): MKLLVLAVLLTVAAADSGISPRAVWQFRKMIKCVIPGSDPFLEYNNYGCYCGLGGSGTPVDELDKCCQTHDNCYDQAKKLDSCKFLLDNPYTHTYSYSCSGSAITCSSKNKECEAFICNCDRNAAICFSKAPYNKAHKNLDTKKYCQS
Chain of Hexokinase-1 (P19367 whole entry, the tested form may be a part): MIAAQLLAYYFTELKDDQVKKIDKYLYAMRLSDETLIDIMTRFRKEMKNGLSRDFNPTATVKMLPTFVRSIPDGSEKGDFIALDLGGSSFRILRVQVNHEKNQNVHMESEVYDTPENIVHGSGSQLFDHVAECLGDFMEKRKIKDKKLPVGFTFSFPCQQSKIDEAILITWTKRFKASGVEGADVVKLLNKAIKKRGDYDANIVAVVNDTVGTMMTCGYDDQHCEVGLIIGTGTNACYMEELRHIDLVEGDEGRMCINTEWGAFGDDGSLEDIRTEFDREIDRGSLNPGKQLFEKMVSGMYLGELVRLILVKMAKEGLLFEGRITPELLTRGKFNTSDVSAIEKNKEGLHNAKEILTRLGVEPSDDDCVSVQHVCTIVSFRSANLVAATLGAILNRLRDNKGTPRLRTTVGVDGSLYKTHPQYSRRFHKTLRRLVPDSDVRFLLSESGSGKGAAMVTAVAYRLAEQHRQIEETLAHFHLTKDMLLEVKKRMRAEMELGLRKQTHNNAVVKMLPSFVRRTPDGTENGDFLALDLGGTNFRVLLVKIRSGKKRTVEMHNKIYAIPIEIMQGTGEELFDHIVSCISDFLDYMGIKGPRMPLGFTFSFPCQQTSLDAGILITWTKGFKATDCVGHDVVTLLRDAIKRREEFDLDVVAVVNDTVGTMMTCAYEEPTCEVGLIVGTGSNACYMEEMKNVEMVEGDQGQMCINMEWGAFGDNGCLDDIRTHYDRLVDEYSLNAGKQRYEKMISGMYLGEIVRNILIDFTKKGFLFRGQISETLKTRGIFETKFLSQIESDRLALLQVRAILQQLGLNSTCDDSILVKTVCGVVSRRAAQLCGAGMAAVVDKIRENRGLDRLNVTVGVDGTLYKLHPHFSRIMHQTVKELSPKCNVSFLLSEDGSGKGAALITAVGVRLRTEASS
Chain of Beta-galactosidase (Q8VNN2 whole entry): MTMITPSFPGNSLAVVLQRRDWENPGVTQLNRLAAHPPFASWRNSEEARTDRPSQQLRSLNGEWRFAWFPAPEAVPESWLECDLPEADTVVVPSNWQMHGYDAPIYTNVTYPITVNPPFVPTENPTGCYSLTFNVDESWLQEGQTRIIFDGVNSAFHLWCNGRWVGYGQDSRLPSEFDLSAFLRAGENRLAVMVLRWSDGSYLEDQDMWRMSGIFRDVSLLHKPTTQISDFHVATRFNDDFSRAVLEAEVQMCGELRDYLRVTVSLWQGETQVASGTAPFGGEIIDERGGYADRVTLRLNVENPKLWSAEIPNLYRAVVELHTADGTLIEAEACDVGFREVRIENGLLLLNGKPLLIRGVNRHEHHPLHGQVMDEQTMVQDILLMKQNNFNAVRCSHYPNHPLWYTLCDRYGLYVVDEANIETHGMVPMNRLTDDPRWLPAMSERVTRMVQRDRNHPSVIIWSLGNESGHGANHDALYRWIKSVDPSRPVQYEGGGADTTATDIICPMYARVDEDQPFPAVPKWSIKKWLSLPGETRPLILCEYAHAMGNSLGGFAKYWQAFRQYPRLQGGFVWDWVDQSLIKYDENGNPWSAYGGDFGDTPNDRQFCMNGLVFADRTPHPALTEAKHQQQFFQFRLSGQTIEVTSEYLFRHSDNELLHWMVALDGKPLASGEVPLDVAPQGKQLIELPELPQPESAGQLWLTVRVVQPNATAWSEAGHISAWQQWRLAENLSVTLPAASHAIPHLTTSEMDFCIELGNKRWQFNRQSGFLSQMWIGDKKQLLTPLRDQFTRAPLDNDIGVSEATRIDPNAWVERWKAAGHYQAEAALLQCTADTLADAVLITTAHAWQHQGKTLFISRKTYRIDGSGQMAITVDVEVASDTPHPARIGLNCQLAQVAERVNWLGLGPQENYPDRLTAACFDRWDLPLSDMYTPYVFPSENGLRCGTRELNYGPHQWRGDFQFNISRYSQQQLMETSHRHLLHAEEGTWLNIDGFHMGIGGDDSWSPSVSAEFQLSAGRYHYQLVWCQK
Chain of Cysteine protease ATG4B (Q9Y4P1 whole entry): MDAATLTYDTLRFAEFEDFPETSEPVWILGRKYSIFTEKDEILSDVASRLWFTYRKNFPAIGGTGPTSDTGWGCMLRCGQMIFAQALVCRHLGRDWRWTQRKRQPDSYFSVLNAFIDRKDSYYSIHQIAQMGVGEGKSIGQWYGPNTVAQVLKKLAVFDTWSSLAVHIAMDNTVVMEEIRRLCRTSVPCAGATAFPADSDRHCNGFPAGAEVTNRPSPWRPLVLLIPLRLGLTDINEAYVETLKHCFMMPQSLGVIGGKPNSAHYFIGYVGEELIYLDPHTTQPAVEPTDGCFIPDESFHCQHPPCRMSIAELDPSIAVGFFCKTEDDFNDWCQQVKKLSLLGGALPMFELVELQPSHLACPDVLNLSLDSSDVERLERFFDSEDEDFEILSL

Regarding `CN(C)c1ccc(/C=C2\N=C(c3ccc(Cl)c([N+](=O)[O-])c3)NC2=O)cc1`, the IC50 in assay [1] is given as > 40 µM (not active). The EC50 at Beta-galactosidase was > 40 µM (inactive).

On to `CCN(CC)CCCNC(=O)c1cc2c(=O)n(C)c3ccccc3c2n1C`, for which the IC50 (in assay [2]; in the assay on HEK293) was > 67.5 µM (inactive) throughout. Moreover, in [3], the concentration at half-maximal activity (AC50) was 26.9 µM (active).

As for `CSc1nnc2nc3c(c(O)n12)C1(CCCCC1)Cc1ccccc1-3`, the concentration giving a half-maximal response (EC50) is 7.86 µM (active) in assay [4], 123 µM (active) in the assay on Streptococcus and > 150 µM (not active) at Streptokinase A. The half-maximal inhibitory concentration (IC50) is 5.6 µM (active) on Phospholipase A2 and 7.09 µM (active) on Cysteine protease ATG4B.

For the molecule `O=C(c1ccc(Cl)cc1)N1CCN(c2ccc(Cl)cc2)CC1`, the values for the concentration at half-maximal activity (AC50) in the assay on Candida albicans [5], with Candida albicans [6] and with Candida albicans [7] were 0.375 µM (active), 5.25 µM (active) and 4.76 µM (active), respectively.

Consider `N#Cc1ccc(CSc2nnc(NC(=O)c3ccncc3)s2)cc1`, for which the IC50 on Hexokinase-1 and at Hexokinase HKDC1 was > 80 µM (inactive) throughout.

As to `COCCN(C)c1cc(C)c2ccccc2n1`, the IC50 in assay [8] is 20.8 µM (active).

The record behind these values is ChEMBL document CHEMBL1201862, “PubChem BioAssay data set” (2004).
